Results reported in the supplement of paper PMC11061612.

What was measured:
[1] = compound: COc1nnc2ccc(N3CCC(c4ccc(OCCN5CCN(C)C(=O)[C@H]5C)cc4)CC3)nn12 [AZD5153]; conditions: max 1 µM
Procedure, shortened: (§1)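 Viability was measured with CellTiter-Glo 2.0 luminescence after 72 hours of dosing at a final DMSO of typically 0.2%, and scaled between blank-well and DMSO-well means. Beforehand, cancer cell lines sat 24 hours at 37°C and 5% CO2 in 1536-well plates in 7.5 μl DMEM/F12 or RPMI with 10% FBS. A non-linear mixed effects model fitted two-parameter logistic curves to the dose responses. The single-agent IC50 comes from these fits.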

[2] = compound: CN(CC[C@H](CSC1=CC=CC=C1)NC2=C(C=C(C=C2)S(=O)(=O)NC(=O)C3=CC=C(C=C3)N4CCC(CC4)[C@H](C5=CC=CC=C5C6=CC=C(C=C6)Cl)O)S(=O)(=O)C(F)(F)F)CCO [AZD4320]; conditions: max 1 µM
Procedure, shortened: as §1

[3] = compound: CCc1c2c(nc3ccc(O)cc13)-c1cc3c(c(=O)n1C2)COC(=O)[C@]3(O)CC [SN-38]; conditions: max 0.3 µM
Procedure, shortened: as §1

[4] = compound: C[C@@H](Nc1cc(F)cc(F)c1)c1cc(C(=O)N(C)C)cc2c(=O)cc(N3CCOCC3)oc12 [AZD8186]; conditions: max 3 µM
Procedure, shortened: as §1

[5] = compound: C[C@@H](c1ccc2nccn2c1)n1nnc2ncc(-c3cnn(C)c3)nc21 [Savolitinib]; conditions: max 1 µM
Procedure, shortened: as §1

[6] = compound: CC(C)n1c(=O)n(C)c2cnc3cc(F)c(-c4ccc(OCCCN5CCCCC5)nc4)cc3c21 [AZD1390]; conditions: max 0.3 µM
Procedure, shortened: as §1

[7] = compound: C1CN(CCC1(C(=O)N[C@@H](CCO)C2=CC=C(C=C2)Cl)N)C3=NC=NC4=C3C=CN4 [Capivasertib]
Procedure, shortened: as §1

[8] = compound: COc1cccc2c1C(=O)c1c(O)c3c(c(O)c1C2=O)C[C@@](O)(C(=O)CO)C[C@@H]3O[C@H]1C[C@H](N)[C@H](O)[C@H](C)O1 [Doxorubicin]; conditions: max 1 µM
Procedure, shortened: as §1

[9] = compound: CC(=O)c1c(C)c2cnc(Nc3ccc(N4CCNCC4)cn3)nc2n(C2CCCC2)c1=O [Palbociclib]; conditions: max 10 µM
Procedure, shortened: as §1

[10] = compound: CN(C)CCCOc1ccc(-c2ccc3ncc4c(c3c2)n(C2CCOCC2)c(=O)n4C)cn1 [AZD0156]; conditions: max 3 µM
Procedure, shortened: as §1

[11] = compound: Cc1c2c(nn1C)CSCc1cc(n(C)n1)CSc1cc(c3ccccc3c1)OCCCc1c(C(=O)O)n(C)c3c-2c(Cl)ccc13 [AZD5991]; conditions: max 1 µM
Procedure, shortened: as §1

[12] = compound: CC1=CN2[C@@H](C1)C=NC3=CC(=C(C=C3C2=O)OC)OCCCCCOC4=C(C=C5C(=C4)N=C[C@@H]6CC(=CN6C5=O)C)OC [SG3199]; conditions: max 0.001 µM
Procedure, shortened: as §1

[13] = compound: CC(=O)Nc1cccc(-n2c(=O)n(C3CC3)c(=O)c3c(Nc4ccc(I)cc4F)n(C)c(=O)c(C)c32)c1 [Trametinib]; conditions: max 1 µM
Procedure, shortened: as §1

[14] = compound: CS(=O)(=O)CCNCc1ccc(-c2ccc3ncnc(Nc4ccc(OCc5cccc(F)c5)c(Cl)c4)c3c2)o1 [Lapatinib]; conditions: max 10 µM
Procedure, shortened: as §1

[15] = compound: Cc1cc2ncnn2cc1Nc1ncc2c(n1)n(C1CCOCC1)c(=O)n2C [AZD7648]; conditions: max 10 µM
Procedure, shortened: as §1

[16] = compound: Cn1cnc2c(F)c(Nc3ccc(Br)cc3Cl)c(C(=O)NOCCO)cc21 [Selumetinib]; conditions: max 10 µM
Procedure, shortened: as §1

[17] = compound: COc1cccc(OCCCN)c1-c1cc(Nc2cnc(C#N)cn2)n[nH]1 [Prexasertib]; conditions: max 1 µM
Procedure, shortened: as §1

[18] = compound: C[C@@H](Oc1cc(-c2cnn(C3CCNCC3)c2)cnc1N)c1c(Cl)ccc(F)c1Cl [Crizotinib]; conditions: max 10 µM
Procedure, shortened: as §1

[19] = compound: CC1=C(C(=CC=C1)Cl)NC(=O)C2=CN=C(S2)NC3=CC(=NC(=N3)C)N4CCN(CC4)CCO [Dasatinib]; conditions: max 2 µM
Procedure, shortened: as §1

[20] = compound: O=C(c1cc(Cc2n[nH]c(=O)c3ccccc23)ccc1F)N1CCN(C(=O)C2CC2)CC1 [Olaparib]
Procedure, shortened: as §1

[21] = compound: COc1cc2ncnc(Nc3ccc(F)c(Cl)c3)c2cc1OCCCN1CCOCC1 [Gefitinib]; conditions: max 10 µM
Procedure, shortened: as §1

[22] = compound: Cc1nc(-c2cn3c(n2)-c2ccc(-c4cnn(C(C)(C)C(N)=O)c4)cc2OCC3)n(C(C)C)n1 [Taselisib]; conditions: max 10 µM
Procedure, shortened: as §1

[23] = compound: C[C@@H]1COCCN1C2=NC(=NC(=C2)C3(CC3)[S@](=N)(=O)C)C4=C5C=CNC5=NC=C4 [AZD6738]; conditions: max 10 µM
Procedure, shortened: as §1

[24] = compound: CCN(CCO)CCCOc1ccc2c(Nc3cc(CC(=O)Nc4cccc(F)c4)[nH]n3)ncnc2c1 [AZD2811]; conditions: max 1 µM
Procedure, shortened: as §1

[25] = compound: C=CCn1c(=O)c2cnc(Nc3ccc(N4CCN(C)CC4)cc3)nc2n1-c1cccc(C(C)(C)O)n1 [AZD1775]; conditions: max 3 µM
Procedure, shortened: as §1

[26] = compound: COc1cc(Nc2ncc3c(n2)-c2ccc(Cl)cc2C(c2c(F)cccc2OC)=NC3)ccc1C(=O)O [Alisertib]; conditions: max 10 µM
Procedure, shortened: as §1

[27] = compound: CC1(C)CCC(CN2CCN(c3ccc(C(=O)NS(=O)(=O)c4ccc(NCC5CCOCC5)c([N+](=O)[O-])c4)c(Oc4cnc5[nH]ccc5c4)c3)CC2)=C(c2ccc(Cl)cc2)C1 [Venetoclax]; conditions: max 1 µM
Procedure, shortened: as §1

| Cell Line | IC50, cell viability 72 h [1] [nM] | IC50, cell viability 72 h [2] [nM] | IC50, cell viability 72 h [3] [nM] | IC50, cell viability 72 h [4] [nM] | IC50, cell viability 72 h [5] [nM] | IC50, cell viability 72 h [6] [nM] | IC50, cell viability 72 h ([7]; max 10 µM) [nM] | IC50, cell viability 72 h [8] [nM] | IC50, cell viability 72 h [9] [nM] | IC50, cell viability 72 h [10] [nM] | IC50, cell viability 72 h [11] [nM] | IC50, cell viability 72 h [12] [nM] | IC50, cell viability 72 h [13] [nM] | IC50, cell viability 72 h [14] [nM] | IC50, cell viability 72 h [15] [nM] | IC50, cell viability 72 h [16] [nM] | IC50, cell viability 72 h [17] [nM] | IC50, cell viability 72 h [18] [nM] | IC50, cell viability 72 h [19] [nM] | IC50, cell viability 72 h ([20]; max 10 µM) [nM] | IC50, cell viability 72 h [21] [nM] | IC50, cell viability 72 h [22] [nM] | IC50, cell viability 72 h [23] [nM] | IC50, cell viability 72 h [24] [nM] | IC50, cell viability 72 h [25] [nM] | IC50, cell viability 72 h [26] [nM] | IC50, cell viability 72 h [27] [nM] | IC50, cell viability 72 h ([7]; max 3 µM) [nM] | IC50, cell viability 72 h ([20]; max 3 µM) [nM] |
| --- | --- | --- | --- | --- | --- | --- | --- | --- | --- | --- | --- | --- | --- | --- | --- | --- | --- | --- | --- | --- | --- | --- | --- | --- | --- | --- | --- | --- | --- |
| LCLC-97TM1 (Non-Small Cell Lung Carcinoma) | 153 | > 1000 | 75.6 | > 3000 | > 1000 | > 300 | > 10000 | > 1000 | > 10000 | > 3000 | > 1000 | > 1 | 26.4 | > 10000 | > 10000 | 3190 | 28.3 | 4840 | > 2000 | > 10000 | > 10000 | 3360 | 2280 | > 1000 | 1380 | 3440 | > 1000 | – | – |
| OE21 (Esophageal Squamous Cell Carcinoma) | 256 | > 1000 | 214 | > 3000 | > 1000 | > 300 | 5200 | > 1000 | > 10000 | > 3000 | > 1000 | > 1 | > 1000 | 6830 | > 10000 | > 10000 | 43.3 | > 10000 | 1280 | > 10000 | 3380 | 1030 | – | > 1000 | 718 | > 10000 | > 1000 | – | – |
| SW1573 (Lung Adenocarcinoma) | > 1000 | > 1000 | 52.2 | > 3000 | > 1000 | > 300 | > 10000 | > 1000 | > 10000 | > 3000 | > 1000 | > 1 | > 1000 | > 10000 | > 10000 | > 10000 | > 1000 | > 10000 | > 2000 | > 10000 | > 10000 | > 10000 | > 10000 | > 1000 | > 3000 | > 10000 | > 1000 | – | – |
| NCI-H209 (Small Cell Lung Carcinoma) | > 1000 | 18.4 | 0.637 | > 3000 | > 1000 | > 300 | > 10000 | 281 | > 10000 | > 3000 | > 1000 | > 1 | > 1000 | > 10000 | > 10000 | > 10000 | 18.1 | > 10000 | > 2000 | 1030 | > 10000 | > 10000 | 2110 | 800 | 373 | 7740 | 978 | – | – |
| KMRC-20 (Kidney Carcinoma) | > 1000 | > 1000 | 32.8 | > 3000 | > 1000 | > 300 | > 10000 | > 1000 | > 10000 | > 3000 | > 1000 | > 1 | > 1000 | > 10000 | > 10000 | > 10000 | 31.4 | > 10000 | 875 | > 10000 | > 10000 | > 10000 | > 10000 | > 1000 | 1290 | 6920 | > 1000 | – | – |
| BPH-1 (Non-Cancerous) | 69.4 | > 1000 | 6.84 | > 3000 | > 1000 | > 300 | > 10000 | 312 | > 10000 | > 3000 | > 1000 | > 1 | 80.2 | 836 | > 10000 | 4720 | > 1000 | > 10000 | 127 | > 10000 | 5900 | 379 | > 10000 | > 1000 | 882 | 1350 | > 1000 | – | – |
| Hs-746T (Gastric Carcinoma) | 833 | > 1000 | > 300 | > 3000 | 40.9 | > 300 | > 10000 | > 1000 | > 10000 | > 3000 | > 1000 | > 1 | 254 | > 10000 | > 10000 | > 10000 | 66.4 | 683 | > 2000 | > 10000 | > 10000 | > 10000 | 9890 | > 1000 | 1440 | > 10000 | > 1000 | – | – |
| ALL-PO (B-Lymphoblastic Leukemia) | 67.2 | 21.4 | 2.05 | > 3000 | > 1000 | > 300 | 7800 | 166 | 4650 | > 3000 | 57.4 | > 1 | > 1000 | 5960 | > 10000 | > 10000 | 17.7 | 1810 | > 2000 | 7820 | > 10000 | 5290 | 2120 | 6.76 | 510 | 55.9 | 733 | – | – |
| NCI-H720 (Other Solid Carcinomas) | – | – | > 300 | – | – | – | – | > 1000 | – | > 3000 | – | > 1 | – | – | > 10000 | – | 441 | – | – | > 10000 | – | – | 6580 | 652 | 1480 | – | – | 812 | – |
| CHP-134 (Neuroblastoma) | – | – | – | – | – | – | – | – | – | > 3000 | – | – | – | – | – | – | – | – | – | – | – | – | – | – | 646 | – | – | > 3000 | > 3000 |
| MHH-CALL-2 (B-Lymphoblastic Leukemia) | > 1000 | > 1000 | 2.33 | > 3000 | > 1000 | > 300 | > 10000 | – | > 10000 | > 3000 | 150 | – | > 1000 | > 10000 | > 10000 | > 10000 | 93.4 | 679 | > 2000 | – | > 10000 | 9370 | 3260 | > 1000 | 1070 | 3120 | > 1000 | – | > 3000 |
